ChEMBL document CHEMBL1201862, “PubChem BioAssay data set” (2004)
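Values below derive from 48-hour exposures of cells grown in 96-well plates, with endpoints linearly interpolated between the two concentrations bracketing the appropriate inhibition level. Abbreviation: GI50, concentration required for 50% inhibition of growth.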 Activity calls are given as the source filed them. Cut-off read from the data, not from the text of the source: active = GI50 up to about 1.1 µM and inactive = higher.

Assays:
Test in all cases: NCI tumour cell line growth inhibition, 48 h
OVCAR-4 = tested on: OVCAR-4
HCT-15 = tested on: HCT-15
SF-539 = tested on: SF-539
LOX IMVI = tested on: LOX IMVI
CCRF-CEM = tested on: CCRF-CEM
UO-31 = tested on: UO-31
MDA-MB-435 = tested on: MDA-MB-435
MDA-MB-231 = tested on: MDA-MB-231
EKVX = tested on: EKVX
SR = tested on: SR
UACC-257 = tested on: UACC-257
NCI-H522 = tested on: NCI-H522
HCC 2998 = tested on: HCC 2998
MCF7 = tested on: MCF7
MOLT-4 = tested on: MOLT-4
T47D = tested on: T47D
KM12 = tested on: KM12
NCI-H226 = tested on: NCI-H226
HT-29 = tested on: HT-29
A549 = tested on: A549
SF-268 = tested on: SF-268
OVCAR-5 = tested on: OVCAR-5
A498 = tested on: A498
SK-OV-3 = tested on: SK-OV-3
SK-MEL-2 = tested on: SK-MEL-2
OVCAR-3 = tested on: OVCAR-3
IGROV-1 = tested on: IGROV-1
ACHN = tested on: ACHN
M14 = tested on: M14
SNB-19 = tested on: SNB-19
SW-620 = tested on: SW-620
SK-MEL-28 = tested on: SK-MEL-28
DU-145 = tested on: DU-145
786-0 = tested on: 786-0
SK-MEL-5 = tested on: SK-MEL-5
K562 = tested on: K562
TK-10 = tested on: TK-10
RPMI-8226 = tested on: RPMI-8226
BT-549 = tested on: BT-549
SN12C = tested on: SN12C
COLO 205 = tested on: COLO 205
HOP-62 = tested on: HOP-62
CAKI-1 = tested on: CAKI-1
HOP-92 = tested on: HOP-92
NCI-H460 = tested on: NCI-H460
PC-3 = tested on: PC-3
HCT-116 = tested on: HCT-116
RXF 393 = tested on: RXF 393
HL-60 = tested on: HL-60
UACC-62 = tested on: UACC-62
Malme-3M = tested on: Malme-3M
U-251 = tested on: U-251
OVCAR-8 = tested on: OVCAR-8
SF-295 = tested on: SF-295
NCI-H23 = tested on: NCI-H23
NCI/ADR-RES = tested on: NCI/ADR-RES

Measured: GI50

CC1=C(C(=O)OCCO[N+](=O)[O-])C(c2ccccc2C(F)(F)F)C(C(=O)OC(C)C)=C(C)N1 (stereo unspecified)
inactive: OVCAR-4 12.7 µM | SF-539 17.3 µM | LOX IMVI 13.9 µM | CCRF-CEM 27.3 µM | UO-31 11.3 µM | MDA-MB-435 16.6 µM | MDA-MB-231 10.9 µM | EKVX 24.6 µM | SR 41.7 µM | UACC-257 11.2 µM | NCI-H522 16.9 µM | HCC 2998 22.4 µM | MCF7 16 µM | MOLT-4 4.7 µM | T47D 19.8 µM | KM12 8.63 µM | NCI-H226 9.73 µM | HT-29 14.2 µM | A549 13.2 µM | SF-268 16.3 µM | OVCAR-5 14.8 µM | A498 24.1 µM | SK-OV-3 39.6 µM | SK-MEL-2 12.8 µM | OVCAR-3 10.5 µM | IGROV-1 13.1 µM | ACHN 25.7 µM | M14 13.1 µM | SNB-19 18.2 µM | SW-620 30.1 µM | SK-MEL-28 16.6 µM | DU-145 39.4 µM | 786-0 15 µM | SK-MEL-5 10 µM | K562 3.94 µM | TK-10 18.1 µM | RPMI-8226 5.12 µM | BT-549 13.5 µM | SN12C 16.8 µM | COLO 205 14 µM | HOP-62 20.6 µM | CAKI-1 11.4 µM | HOP-92 3.03 µM | NCI-H460 10.7 µM | PC-3 3.36 µM | HCT-116 9.84 µM | RXF 393 10.3 µM | HL-60 15.9 µM | UACC-62 19.3 µM | Malme-3M 18.3 µM | U-251 14.6 µM | OVCAR-8 17.7 µM | SF-295 11.8 µM | NCI-H23 19.6 µM | NCI/ADR-RES 14.3 µM
12.2 µM: HCT-15
